Test [1] deals with T1, human recombinant histamine H2 receptor (Homo sapiens, UniProt P25021).
T1 construct: expressed in transfected cells; host or cells: CHO-K1 cells
Kind of test: Histamine H2 radioligand binding ([125I]Aminopotentidine). In a few lines: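 Membranes of CHO-K1 cells expressing human H2 receptor incubated with 0.1 nM [125I]aminopotentidine, 120 min, 25 °C, 50 mM phosphate pH 7.4; nonspecific binding defined with 3 μM tiotidine.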

Test [2] deals with T2, human recombinant serotonin (5-Hydroxytryptamine) 5-HT2C receptor (Homo sapiens, UniProt P28335).
T2 construct: expressed in transfected cells; host or cells: CHO-K1 cells
T2 sequence (P28335 33-458): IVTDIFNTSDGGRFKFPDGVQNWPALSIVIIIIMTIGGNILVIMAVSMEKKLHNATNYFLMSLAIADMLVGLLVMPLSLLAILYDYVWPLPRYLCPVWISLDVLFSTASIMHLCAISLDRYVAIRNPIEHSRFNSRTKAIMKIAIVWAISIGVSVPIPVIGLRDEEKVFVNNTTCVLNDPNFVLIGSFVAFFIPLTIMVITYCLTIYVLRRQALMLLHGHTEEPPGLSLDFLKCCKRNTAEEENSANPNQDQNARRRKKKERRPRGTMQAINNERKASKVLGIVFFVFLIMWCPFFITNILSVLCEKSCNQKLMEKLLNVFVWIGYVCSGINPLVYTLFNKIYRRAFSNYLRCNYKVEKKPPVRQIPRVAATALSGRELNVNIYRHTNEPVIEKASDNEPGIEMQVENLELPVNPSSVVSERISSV
Kind of test: Serotonin 5-HT2C radioligand binding ([3H]Mesulergine). The conditions noted are these: for inhibition at 0.01 µM: compound concentration 10 nM; for inhibition at 0.03 µM: compound concentration 0.03 μM; for inhibition at 0.1 µM: compound concentration 0.1 μM; for inhibition at 0.3 µM: compound concentration 0.3 μM. How it is done:
Compounds of the invention were incubated with 1 nM [^3H]Mesulergine for 60 minutes at 25° C. Non-specific binding was estimated in the presence of 1 μM Mianserin. Receptor proteins were filtered and washed, the filters were then counted to determine [^3H]Mesulergine specifically bound. […] Biochemical assay results are presented as the percent inhibition of specific binding in Table 5.

The target in test [3] is T3, human recombinant adrenergic α2B receptor (Homo sapiens, UniProt P18089).
T3 construct: expressed in transfected cells; host or cells: CHO-K1 cells
T3 sequence (P18089 1-450): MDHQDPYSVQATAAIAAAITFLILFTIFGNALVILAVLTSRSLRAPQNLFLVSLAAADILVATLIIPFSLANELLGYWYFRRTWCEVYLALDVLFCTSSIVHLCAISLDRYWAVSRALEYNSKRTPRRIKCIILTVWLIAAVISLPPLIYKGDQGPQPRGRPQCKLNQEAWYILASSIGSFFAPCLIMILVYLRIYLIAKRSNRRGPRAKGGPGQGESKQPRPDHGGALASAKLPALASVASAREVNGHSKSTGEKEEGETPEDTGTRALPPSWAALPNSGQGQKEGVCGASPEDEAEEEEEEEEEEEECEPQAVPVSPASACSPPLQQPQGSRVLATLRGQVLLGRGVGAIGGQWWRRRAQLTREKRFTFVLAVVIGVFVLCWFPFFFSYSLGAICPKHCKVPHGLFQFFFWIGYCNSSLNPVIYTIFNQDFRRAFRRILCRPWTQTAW
Kind of test: Adrenergic α2B radioligand binding ([3H]Rauwolscine). The protocol: To evaluate in radioligand binding assays the activity of compounds of the invention, human recombinant adrenergic α2B receptor expressed in Chinese hamster ovary (CHO-K1) cells (Uhlen S et al. Eur J. Pharmacol. 343(1):93, 1998) in a modified Tris-HCl buffer (50 mM Tris-HCl, pH 7.4, 12.5 mM MgCl2, 1 mM EDTA, 0.2% BSA) was used. Compounds of the invention were incubated with 2.5 nM [^3H]Rauwolscine for 60 minutes at 25° C. Non-specific binding was estimated in the presence of 10 μM Prozosin. Receptor proteins were filtered and washed, the filters were then counted to determine [^3H]Rauwolscine specifically bound. Compounds were screened at 1 μM or lower, using 1% DMSO as vehicle. Biochemical assay results are presented as the percent inhibition of specific binding in Table 4.

The target in test [4] is T4, human recombinant serotonin (5-Hydroxytryptamine) 5-HT6 receptor (Homo sapiens, UniProt P50406).
T4 construct: expressed in transfected cells; host or cells: human HeLa cells
Kind of test: Serotonin 5-HT6 radioligand binding ([3H]LSD). The settings on record: for inhibition at 0.01 µM: compound concentration 10 nM; for inhibition at 0.03 µM: compound concentration 0.03 μM; for inhibition at 0.1 µM: compound concentration 0.1 μM; for inhibition at 0.3 µM: compound concentration 0.3 μM. An outline of the steps: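 Human 5-HT6 receptor expressed in HeLa cells, in Tris-HCl pH 7.4 with 150 mM NaCl, ascorbic acid and BSA. Compounds at 1 μM or lower (1% DMSO) incubated 120 min at 37° C with 1.5 nM [3H]LSD. Non-specific binding defined with serotonin; filter counting gives % inhibition of specific binding.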

The target of test [5] is T5, human recombinant serotonin (5-Hydroxytryptamine) 5-HT2A receptor (Homo sapiens, UniProt P28223).
T5 construct: expressed in transfected cells; host or cells: CHO-K1 cells
The test can be described thus: Serotonin 5-HT2A radioligand binding ([3H]Ketanserin). The settings on record: for inhibition at 0.01 µM: compound concentration 10 nM; for inhibition at 0.03 µM: compound concentration 0.03 μM; for inhibition at 0.1 µM: compound concentration 0.1 μM; for inhibition at 0.3 µM: compound concentration 0.3 μM. An outline of the steps:
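Membranes from CHO-K1 cells expressing the receptor, in 50 mM Tris-HCl pH 7.4, incubated 60 min at 25° C with 0.5 nM [3H]Ketanserin; 1 μM Mianserin defines non-specific binding. Filtration and counting; values are % inhibition of specific binding at 1 μM or lower, 1% DMSO.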

The mark [6] stands for this setting: 1 μM, inhibition of specific [125I]Aminopotentidine binding, read-out: Binding data (Percentage Inhibition) Histamine Binding (1 μM) H2.
Setting [7] is: 1 h, read-out: Percent Inhibition of ligand binding Serotonin (1 μM ligand concentration) 5-HT2C.
Where [8] appears, read: 1 h, read-out: Percent Inhibition of ligand binding Adrenergic (1 μM ligand conc.) α2B.
Setting [9] is: 2 h, read-out: Percent Inhibition of ligand binding Serotonin (1 μM ligand concentration) 5-HT6.
The mark [10] stands for this setting: 1 h, read-out: Percent Inhibition of ligand binding Serotonin (1 μM ligand concentration) 5-HT2A.
The mark [11] stands for this setting: compound concentration 1 μM, read-out: Percentage inhibition of ligand binding to H2 receptor.
The mark [12] stands for this setting: read-out: Percentage inhibition of ligand binding to 5-HT2C receptor.
[13] abbreviates: compound concentration 1 μM, read-out: Percentage inhibition of ligand binding to 5-HT2C receptor.
Setting [14] is: compound concentration 1 μM, read-out: Percentage inhibition of ligand binding to Adrenergic α2B receptor.
Setting [15] is: read-out: Percentage inhibition of ligand binding to 5-HT6 receptor.
The mark [16] stands for this setting: compound concentration 1 μM, read-out: Percentage inhibition of ligand binding to 5-HT6 receptor.
Setting [17] is: read-out: Percentage inhibition of ligand binding to 5-HT2A receptor.
The mark [18] stands for this setting: compound concentration 1 μM, read-out: Percentage inhibition of ligand binding to 5-HT2A receptor.

The text below walks through data of patent US9260429B2, “Pyrido[3,4-B]indoles and methods of use” (Medivation Technologies, Inc., priority 2008, dated 2016).

Where two headings read alike, the source gives them in different places.

T5 sequence (P28223 whole entry): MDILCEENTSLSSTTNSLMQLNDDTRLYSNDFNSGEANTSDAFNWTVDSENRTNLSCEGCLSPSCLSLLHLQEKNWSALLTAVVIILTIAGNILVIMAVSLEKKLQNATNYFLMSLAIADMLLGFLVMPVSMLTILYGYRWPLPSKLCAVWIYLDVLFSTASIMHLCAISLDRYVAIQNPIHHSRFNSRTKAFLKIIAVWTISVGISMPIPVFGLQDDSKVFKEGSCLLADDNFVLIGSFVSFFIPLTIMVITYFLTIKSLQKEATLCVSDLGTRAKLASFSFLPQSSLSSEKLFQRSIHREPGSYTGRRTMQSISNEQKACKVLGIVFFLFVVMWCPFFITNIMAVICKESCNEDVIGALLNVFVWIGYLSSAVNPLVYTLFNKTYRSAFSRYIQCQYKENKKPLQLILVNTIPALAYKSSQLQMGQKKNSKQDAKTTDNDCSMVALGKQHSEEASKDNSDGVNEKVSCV
T1 sequence (P25021 whole entry): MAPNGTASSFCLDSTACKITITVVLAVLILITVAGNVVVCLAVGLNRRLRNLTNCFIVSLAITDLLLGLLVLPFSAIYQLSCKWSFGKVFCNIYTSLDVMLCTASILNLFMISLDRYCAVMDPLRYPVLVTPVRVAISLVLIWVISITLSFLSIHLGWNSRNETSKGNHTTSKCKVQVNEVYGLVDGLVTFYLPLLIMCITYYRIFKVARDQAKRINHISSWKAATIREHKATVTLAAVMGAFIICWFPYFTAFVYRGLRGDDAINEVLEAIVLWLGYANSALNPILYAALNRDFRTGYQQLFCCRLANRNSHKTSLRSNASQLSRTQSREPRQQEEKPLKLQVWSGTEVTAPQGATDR
T4 sequence (P50406 whole entry): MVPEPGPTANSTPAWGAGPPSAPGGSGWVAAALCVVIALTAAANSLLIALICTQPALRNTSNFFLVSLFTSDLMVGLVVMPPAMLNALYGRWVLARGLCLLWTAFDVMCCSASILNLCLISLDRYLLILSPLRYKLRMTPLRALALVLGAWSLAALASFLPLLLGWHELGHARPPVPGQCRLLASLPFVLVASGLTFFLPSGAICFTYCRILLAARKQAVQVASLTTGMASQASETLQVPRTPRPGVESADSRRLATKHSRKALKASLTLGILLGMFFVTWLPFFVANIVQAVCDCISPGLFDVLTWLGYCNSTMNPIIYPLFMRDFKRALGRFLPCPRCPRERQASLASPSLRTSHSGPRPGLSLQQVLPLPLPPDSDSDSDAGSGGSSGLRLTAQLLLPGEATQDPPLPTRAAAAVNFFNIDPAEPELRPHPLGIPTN

Take `Cc1ccc2c(c1)c1c(n2CCC(=O)N2CCCCC2)CN(C)CC1` [Compound 43, 3-(1,2,3,4-tetrahydro-2,6-dimethylpyrido[3,4-b]indol-9-yl)-1-(piperidin-1-yl)propan-1-one]: the inhibition at 1 µM was 6% in test [1] (setting [6]); 31% in test [2] (setting [7]); -14% in test [3] (setting [8]); 3% in test [4] (setting [9]); 69% in test [5] (setting [10]).
With `C/C(=C\n1c2c(c3cc(C)ccc31)CCN(C)C2C)c1ccccc1F` (stereo not shown) [Compound 166], the inhibition at 1 µM in test [1] (setting [6]) is 90%; in test [1] (setting [11]), 90%; in test [2] (setting [7]), 96%; in test [2] (setting [13]), 96%; in test [3] (setting [8]), 106%; in test [3] (setting [14]), 106%. For the same compound, the inhibition at 1 µM in test [4] (setting [9]) came to 95%; in test [4] (setting [16]), 95%; in test [5] (setting [10]) it was 102%; in test [5] (setting [18]), 102%. Also, the inhibition at 0.01 µM was 33% in test [2] (setting [12]), 13% in test [4] (setting [15]) and 15% in test [5] (setting [17]). Also, the inhibition at 0.03 µM in test [2] (setting [12]) came out at 62%; in test [4] (setting [15]) it was 16%; in test [5] (setting [17]), 46%. Also, the inhibition at 0.1 µM was 87% in test [2] (setting [12]), 38% in test [4] (setting [15]) and 74% in test [5] (setting [17]). In addition, the inhibition at 0.3 µM stood at 93% in test [2] (setting [12]), 55% in test [4] (setting [15]) and 81% in test [5] (setting [17]).
Regarding `CN1CCc2c(n(CC(=O)N3CCCCC3)c3ccc(Cl)cc23)C1` [Compound 58, 2-(6-chloro-2-methyl-3,4-dihydro-1H-pyrido[3,4-b]indol-9(2H)-yl)-1-(piperidin-1-yl)ethanone], the inhibition at 1 µM in test [1] (setting [6]) is 11%; in test [2] (setting [7]), 30%; in test [3] (setting [8]), -15%; in test [4] (setting [9]), -7%; in test [5] (setting [10]), -10%.
`CC1c2c(c3cc(Cl)ccc3n2C#Cc2ccc(Cl)cc2)CCN1C` (stereo not shown) [Compound 132, 6-chloro-9-((4-chlorophenyl)ethynyl)-1,2-dimethyl-2,3,4,9-tetrahydro-1H-pyrido[3,4-b]indole]: the inhibition at 1 µM in test [1] (setting [6]) came to 57%; in test [2] (setting [7]), 94%; in test [3] (setting [8]), 84%; in test [4] (setting [9]) it was 17%; in test [5] (setting [10]) it was 80%.
As for `C/C(=C\n1c2c(c3cc(C)ccc31)CCN(C)C2c1ccccc1)c1ccc(Cl)cc1` (stereo not shown) [Compound 164, 9-(2-(4-chlorophenyl)prop-1-enyl)-2,6-dimethyl-1-phenyl-2,3,4,9-tetrahydro-1H-pyrido[3,4-b]indole], the inhibition at 1 µM in test [1] (setting [6]) turned out to be 25%; in test [2] (setting [7]), 98%; in test [3] (setting [8]) it was 15%; in test [4] (setting [9]) it was 16%; in test [5] (setting [10]) it was 95%.
Consider `CN1CCc2c(n(CCCC(=O)N3CCCCC3)c3ccc(Cl)cc23)C1` [Compound 44, 4-(6-chloro-1,2,3,4-tetrahydro-2-methylpyrido[3,4-b]indol-9-yl)-1-(piperidin-1-yl)butan-1-one], for which the inhibition at 1 µM in test [1] (setting [6]) was 9%; in test [2] (setting [7]) it was 54%; in test [3] (setting [8]) it was 20%; in test [4] (setting [9]), 12%; in test [5] (setting [10]), 73%.
Turning to `C/C(=C\n1c2c(c3cc(C)ccc31)CCN(C)C2)c1ccc(F)cc1` [Compound 91, (E)-9-(2-(4-fluorophenyl)prop-1-enyl)-2,6-dimethyl-2,3,4,9-tetrahydro-1H-pyrido[3,4-b]indole], the inhibition at 1 µM in test [1] (setting [6]) was 68%; in test [1] (setting [11]), 68%; in test [2] (setting [7]), 104%; in test [2] (setting [13]) it was 104%; in test [3] (setting [8]), 94%; in test [3] (setting [14]), 94%. Besides, the inhibition at 1 µM in test [4] (setting [9]) was 100%; in test [4] (setting [16]), 100%; in test [5] (setting [10]), 97%; in test [5] (setting [18]), 97%. Besides, the inhibition at 0.003 µM worked out at 22% in test [2] (compound concentration 3 nM, read-out: Percentage inhibition of ligand binding to 5-HT2C receptor); 15% in test [4] (compound concentration 3 nM, read-out: Percentage inhibition of ligand binding to 5-HT6 receptor); 2% in test [5] (compound concentration 3 nM, read-out: Percentage inhibition of ligand binding to 5-HT2A receptor). For the same compound, the inhibition at 0.01 µM came to 58% in test [2] (setting [12]), 42% in test [4] (setting [15]) and 21% in test [5] (setting [17]). The results for the inhibition at 0.03 µM in test [2] (setting [12]), in test [4] (setting [15]) and in test [5] (setting [17]) were 77%, 68% and 54%, respectively. For the same compound, the inhibition at 0.1 µM in test [2] (setting [12]) turned out to be 87%; in test [4] (setting [15]), 84%; in test [5] (setting [17]) it was 79%. Besides, the figures for the inhibition at 0.3 µM in test [2] (setting [12]), in test [4] (setting [15]) and in test [5] (setting [17]) were 93%, 96% and 92%, respectively.
Take `Cc1ccc2c(c1)c1c(n2CCc2ccc(C(F)(F)F)nc2)CN(C)CC1` [Compound 5, 9-(2-(6-(trifluoromethyl)pyridin-3-yl)ethyl)-2,3,4,9-tetrahydro-2,6-dimethyl-1H-pyrido[3,4-b]indole]: the inhibition at 1 µM stood at 36% in test [1] (setting [6]); 39% in test [2] (setting [7]); 83% in test [3] (setting [8]); 6% in test [4] (setting [9]); 51% in test [5] (setting [10]).
For `Cc1ccc(C(O)Cn2c3c(c4cc(C)ccc42)CCN(C)C3)cc1` (stereo not shown) [Compound 72], the inhibition at 1 µM in test [1] (setting [6]) came out at 19%; in test [2] (setting [7]) it was 89%; in test [3] (setting [8]) it was 105%; in test [4] (setting [9]), 61%; in test [5] (setting [10]), 96%.
